PubChem BioAssay (NCI)
Several values for one entry are separate records, joined by “and”; a condition that tells them apart may be missing. Equal values may be shown once.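 The compound was tested at five concentrations on cells cultured in 96-well plates, with a 48-hour exposure period. Here, GI50 denotes the concentration required for 50% inhibition of growth. Definition used: TGI = concentration required for complete inhibition of growth.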

Tests used:
Assay in all cases: NCI tumour cell line growth inhibition, 48 h
T-47D breast = tested on: T-47D breast
K-562 leukemia = tested on: K-562 leukemia
SK-MEL-2 melanoma = tested on: SK-MEL-2 melanoma
UO-31 renal = tested on: UO-31 renal
RPMI-8226 leukemia = tested on: RPMI-8226 leukemia
SK-OV-3 ovarian = tested on: SK-OV-3 ovarian
CAKI-1 renal = tested on: CAKI-1 renal
MCF7 breast = tested on: MCF7 breast
786-0 renal = tested on: 786-0 renal

Row | SMILES | GI50 (T-47D breast) | TGI (T-47D breast) | GI50 (K-562 leukemia) | TGI (K-562 leukemia) [µM] | GI50 (SK-MEL-2 melanoma) | TGI (SK-MEL-2 melanoma) | GI50 (UO-31 renal) | TGI (UO-31 renal) | GI50 (RPMI-8226 leukemia) | TGI (RPMI-8226 leukemia) | GI50 (SK-OV-3 ovarian) | TGI (SK-OV-3 ovarian) | GI50 (CAKI-1 renal) | TGI (CAKI-1 renal) | GI50 (MCF7 breast) | TGI (MCF7 breast) | GI50 (786-0 renal) | TGI (786-0 renal)
1 | C=C1C(=O)O[C@H]2[C@H]1CC/C(CNC(=O)Cc1c[nH]c3ccccc13)=C\CC[C@@]1(C)O[C@@H]21 | 1.07 µM | 8.16 µM | 0.337 µM | 11.1 | 6.46 µM | 22.2 µM | 6 µM | 19.3 µM | 0.486 µM | 3.96 µM | 17.6 µM | 31.7 µM | 4.77 µM | 17.1 µM | 0.404 µM | 3.3 µM | 1.22 µM | 4.98 µM
2 | C[C@@H]1COCCN1c1cc(C2([S@](C)(=N)=O)CC2)nc(-c2ccnc3[nH]ccc23)n1 | 3.96 µM and 7.78 µM | 35.8 µM and > 10 µM | 3.76 µM and 2.96 µM | > 100 | 3.74 µM and 1.56 µM | 26.2 µM and > 10 µM | 2.95 µM and 2.04 µM | 32.1 µM and > 10 µM | 3.96 µM and 6.76 µM | 47.5 µM and > 10 µM | 2.7 µM and 4.51 µM | 27.9 µM and > 10 µM | 6.06 µM and 4.17 µM | 75.9 µM and > 10 µM | 0.417 µM and 0.611 µM | 39 µM and > 10 µM | 1.39 µM and 2.03 µM | 16.1 µM and > 10 µM
3 | COc1ccc(-c2cc(-c3cc(Cl)ccc3Cl)nc3n[nH]c(N)c23)cc1 | 30.8 µM | > 100 µM | 15.8 µM | > 100 | 36.1 µM | > 100 µM | 27.9 µM | > 100 µM | 22.8 µM | 70.2 µM | 34.5 µM | > 100 µM | 4.05 µM | 24.4 µM | 3.45 µM | > 100 µM | 19.3 µM | 54.1 µM
4 | CCN(CC)CCOCC[C@H]1CC[C@H]2[C@@H]3[C@H](C)Cc4cc(OS(N)(=O)=O)ccc4[C@H]3CC[C@]12C | 0.277 µM | 2.94 µM | 0.547 µM | 2.26 | 2.32 µM | 4.45 µM | 1.54 µM | 3.7 µM | 0.704 µM | 2.67 µM | 1.49 µM | 3.2 µM | 1.36 µM | 2.97 µM | 0.219 µM | 2.28 µM | 1.28 µM | 2.6 µM
5 | FC(F)(F)c1nc(N2CCCC2)ncc1-c1nnnn1-c1ccc(Cl)cc1 | 5.29 µM | > 100 µM | 3 µM | 22.6 | 18 µM | > 100 µM | 16.8 µM | > 100 µM | 1.41 µM | 12.8 µM | 31.8 µM | > 100 µM | 17.5 µM | 88.2 µM | 14.3 µM | > 100 µM | 33.2 µM | > 100 µM
